The source of these data is paper PMC11305387, “AlphaFold accelerated discovery of psychotropic agonists targeting the trace amine–associated receptor 1” (Science Advances, 2024).

The target of one experiment is T1, hTAAR1 (Homo sapiens, UniProt Q96RJ0).
T1 construct: expressed in transfected cells; host or cells: Expi293F
T1 sequence (Q96RJ0 1-339): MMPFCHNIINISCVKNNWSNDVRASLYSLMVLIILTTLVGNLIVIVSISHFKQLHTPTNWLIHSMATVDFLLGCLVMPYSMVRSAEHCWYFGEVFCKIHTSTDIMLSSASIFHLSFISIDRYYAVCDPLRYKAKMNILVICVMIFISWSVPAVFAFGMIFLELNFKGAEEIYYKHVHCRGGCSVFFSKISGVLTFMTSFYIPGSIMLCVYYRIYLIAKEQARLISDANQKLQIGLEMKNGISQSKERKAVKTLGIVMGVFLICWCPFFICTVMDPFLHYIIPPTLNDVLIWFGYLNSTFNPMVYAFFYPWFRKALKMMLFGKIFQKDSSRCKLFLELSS
Nature of the experiment: G protein (mini-Gs) recruitment luminescence complementation assay, agonist mode. It is filed as cell-based. How it is done: The 62 predicted ligands were purchased from commercial vendors and tested for activity at a concentration of 20 μM in a luminescence complementation–based assay measuring recruitment of mini-Gs to the human TAAR1 ([38]).
To monitor TAAR1 activation by compounds, we used our previously described system. […] Cells were then reseeded in solid white, 96-well plates (Corning) with 90 μl of cell suspension per well. Luminescence was read using a plate reader for 5 min (SPARK 10 M, Tecan) before the addition of compounds to ensure signal stability. Ten microliters of each compound diluted in DPBS was added, and luminescence from each well was read for 10 min, with 100-ms read time per well. The A2AR counter-screen was performed using the same protocol. In these experiments, the hTAAR1 was replaced by a C-terminally SmBiT-tagged hA2AR construct.

Experiment [1] has as its system TAAR1-WT and TAAR1-KO mice. Nature of the experiment: Core-body temperature (CBT) measurement. It is filed as in vivo. The following applies: TAAR1-KO mice, 1 mg/kg (fig. S13A). On the procedure:
Core temperature was determined by a rectal thermoprobe. Compounds or vehicle was administered intraperitoneally. A basal measurement was performed immediately before injection. Measurements were repeated every 30 min for 2 hours. Mean changes in CBT were calculated by subtracting the value from vehicle treated group at the corresponding time point. A washout of 1 week between different doses of compound 65 was applied, and mice were injected starting with the lowest dose first.

[2] abbreviates: Tables S3A/S3B, compounds tested at 20 μM, relative to the maximal effect of β-PEA (20 µM).
The mark [3] stands for this setting: TAAR1, G protein recruitment assay, read-out: pEC50 (converted).
Setting [4] is: relative to the effect of the reference agonist β-PEA, read-out: Emax.

Molecules are shown by their SMILES. “And” between values parts separate entries of the source, which are not always exact repeats. Equal entries are not always repeated. Where two headings read alike, the source gives them in different places. Some results are limits rather than exact numbers.

Broadly, the Emax is the size of the effect at its maximum, as opposed to the concentration needed. At hTAAR1 (setting [2]), `Cc1cccc(C2CCCN2)c1` (stereo not drawn) [Compound 2] came in with an Emax of 1.3%.

For `Cc1nc(C(N)C(C)O)cs1.Cl.Cl` (stereo not drawn) [Compound 3], the Emax on hTAAR1 (setting [2]) is listed as 2.3%.

`Cl.Cl.c1cnc2c(c1)CNC2` [Compound 4] returned an Emax on hTAAR1 (setting [2]) of 4.4%. Still for that read-out and setting: in the case of `Cc1c(C(C)N)sc2ccccc12.Cl` (stereo not drawn) [Compound 5] it was 8.5%; in that of `CNC(C)c1nc2ccccc2s1` (stereo not drawn) [Compound 6], 8.8%.

At hTAAR1 (setting [2]), `CC(N)c1cc2ccccc2s1` (stereo not drawn) [Compound 7] came in with an Emax of 14.7%. For `CCCN(CCC)C1CCc2cccc(O)c2C1` (stereo not drawn) [Compound 8-OH-DPAT, 8-hydroxy-2-(di-n-propylamino)tetralin, reference compound], the CBT responsiveness entry in experiment [1] is “validated the responsiveness of TAAR1-KO mice”. Compound `Br.NCc1cccc2c(O)cccc12` [Compound 8] yielded a maximum response (Emax) on hTAAR1 (setting [2]) of 14.9%. On the same count and under the same terms, the value for `NC1CSc2ccc(Br)cc21` (stereo not drawn) [Compound 9] was 19.1%; that for `CNCc1cc2sccc2n1C` [Compound 11] was 40.4%. In the case of `NCc1noc2ccc(F)cc12` [Compound 13], the EC50 on hTAAR1 (setting [3]) is 3.16 µM. Also, the Emax at hTAAR1 (setting [4]) came to 51.8%.

Take `C[C@H](N)c1coc2ccccc12` [Compound 14]: the EC50 on hTAAR1 (setting [3]) is 7.94 µM. At hTAAR1 (setting [4]), the Emax was 54.3%. On to `C[C@H](N)c1csc2ccccc12` [Compound 15], for which the EC50 at hTAAR1 (setting [3]) is 6.31 µM. For the same compound, the maximal response (Emax) at hTAAR1 (setting [4]) was 57.5%. For `C[C@@H](N)c1cc2ccccc2o1` [Compound 16], in that order: 1.58 µM and 61.9%. For `NC[C@H]1Cc2cc(Br)ccc2O1` [Compound 17], in that order: 6.31 µM and 67.8%.

As to `Cc1ccc(-c2cccc3c2CNCC3)o1` [Compound 18], the EC50 at hTAAR1 (setting [3]) was 0.631 µM. Besides, the Emax at hTAAR1 (setting [4]) is 68.7%. Regarding `CN[C@H]1CCc2ccccc2C1` [Compound 19], the EC50 at hTAAR1 (setting [3]) is 3.98 µM. In addition, at hTAAR1 (setting [2]), the Emax at 20 µM turned out to be 72.8%. Also, the Emax on hTAAR1 (setting [4]) is 74.5%. As to `N[C@H]1COc2cccc(Br)c2C1` [Compound 20], the EC50 on hTAAR1 (setting [3]) was 3.98 µM. Moreover, on hTAAR1 (setting [4]), the maximal effect (Emax) amounted to 74.5%. For the compound `Cc1cc2c(CCN)csc2s1` [Compound 21], the EC50 at hTAAR1 (setting [3]) was 3.16 µM. Further, the Emax at 20 µM on hTAAR1 (setting [2]) was 75.3%. At hTAAR1 (setting [4]), the maximum response (Emax) was 75.2%. Consider `CNCc1cccc2cccnc12` [Compound 22], for which the EC50 at hTAAR1 (setting [3]) is 3.16 µM. In addition, the Emax on hTAAR1 (setting [4]) was determined as 78.5%. For `NCc1nsc2ccccc12` [Compound 23] the same measures were 3.98 µM and 79.2%. For the compound `COc1cccc(C2=CCNC2)c1` [Compound 24], at hTAAR1 (setting [3]), the EC50 is 1.58 µM. The compound further gave an Emax at 20 µM on hTAAR1 (setting [2]) of 81.8%. The Emax on hTAAR1 (setting [4]) worked out at 81.4%. Consider `c1csc([C@H]2CCCNC2)n1` [Compound 25], for which the EC50 on hTAAR1 (setting [3]) is 1 µM. The Emax on hTAAR1 (setting [4]) was 95.3%. As to `NC[C@H]1OCCc2sc(F)cc21` [Compound 26], at hTAAR1 (setting [3]), the EC50 is 1 µM. The Emax at hTAAR1 (setting [4]) worked out at 95.5%. For `Cc1ccc([C@@H]2CNCCO2)o1` [Compound 27] the same measures were 0.251 µM and 98.7%. For `Cc1ccc2c(c1Br)CNC2` [Compound 28] the same measures were 0.398 µM and 103%. For `Brc1csc2c1CNCC2` [Compound 29], in that order: 0.158 µM and 106%. Regarding `CN1CCC(c2ccc(Br)cc2)C1` (stereo not drawn) [Compound 33], on hTAAR1 (setting [2]), the Emax is on record as 0.6%. On the same count and under the same terms, in the case of `C[C@@H](NCC1CC1)c1coc2ccccc12` [Compound 35] it was 0.9%; in that of `CC(CNCc1ncc[nH]1)c1ccncc1` (stereo not drawn) [Compound 36], 1.3%. On the same count and under the same terms, the value for `CC(NCCO)c1cccc2c1OCO2` (stereo not drawn) [Compound 38] was 3.5%; that for `CCNCc1nc(-c2cccs2)cs1` [Compound 39] was 3.9%; that for `CCN1CCc2ccccc2C(C)C1` (stereo not drawn) [Compound 43] was 7.6%. On the same count and under the same terms, the value for `OC(CNC[C@@H]1Cc2ccccc2CO1)C1CC1` (stereo partly drawn) [Compound 44] was 10.0%; that for `CN[C@@H](C)CNc1ncnc2sc(C)cc12` [Compound 46] was 18.8%. In turn, `c1ccc2c(c1)COC2CNCc1ccn[nH]1` (stereo not drawn) [Compound 47] showed a maximal response (Emax) on hTAAR1 (setting [2]) of 21.0%. `CN1CCC(c2c[nH]c3ccccc23)C1` (stereo not drawn) [Compound 49]: the maximum response (Emax) on hTAAR1 (setting [2]) turned out to be 27.1%. For the compound `CCN1CCCC(c2ccccc2)C1` (stereo not drawn) [Compound 52], on hTAAR1 (setting [2]), the Emax came to 44.5%.

Take `c1ccc2cc(CNC3CC3)ccc2c1` [Compound 56]: the EC50 on hTAAR1 (setting [3]) was 12.6 µM. Moreover, at hTAAR1 (setting [4]), the Emax was found to be 63%. For `CCNCc1cccc2c1OCO2` [Compound 57] the same measures were 5.01 µM and 73.2%.

As for `CC[C@@H](CNCC1=CCCOC1)c1ccccc1` [Compound 58], the EC50 at hTAAR1 (setting [3]) was 7.94 µM. This compound also yielded a maximal effect (Emax) at hTAAR1 (relative to the effect of the reference agonist β-PEA) of 78.4%. Turning to `CCNCc1cncc2ccccc12` [Compound 59], the EC50 at hTAAR1 (setting [3]) is 6.31 µM. In addition, the maximal effect (Emax) on hTAAR1 (setting [4]) was determined as 78.8%. For `CCNCc1cccc2ccoc12` [Compound 60], in that order: 3.16 µM and 79.9%. For `c1ccc2c(c1)C[C@H]2CNCc1c[nH]cn1` [Compound 61], in that order: 5.01 µM and 80.3%. For `Brc1cccc2c1CNCC2` [Compound 62], in that order: 0.316 µM and 107%. Consider `c1coc(C2CNCCO2)c1` (stereo not drawn) [Compound 64], for which the EC50 on hTAAR1 (setting [3]) is 0.398 µM. At hTAAR1 (TAAR1 G protein recruitment), the “fold reduction of agonist potency versus compound 30” value is reported as greater than 10 fold. For `Cn1cc(C2=CCCNC2)cn1` [Compound 66], the EC50 at hTAAR1 (setting [3]) was 2 µM. Take `C1=C(c2ccccc2)CNCC1` [Compound 67]: the EC50 on hTAAR1 (pEC50, TAAR1, G protein recruitment assay) was 0.0251 µM. For the compound `COc1cccnc1C1=C(C)CCNC1` [Compound 69], the EC50 at hTAAR1 (setting [3]) is 3.16 µM.

On to `CC1=C(c2cc[nH]n2)CNCC1` [Compound 71], for which the EC50 on hTAAR1 (setting [3]) was 1.58 µM and 0.631 µM. The same measure, in the same setting: the value for `CC1=C(c2ncco2)CNCC1` [Compound 74] was 0.631 µM. Regarding `CC1=C(c2ccccn2)CNCC1` [Compound 75], the EC50 on hTAAR1 (setting [3]) was 0.501 µM. Same read-out and setting: the value for `CC1=C(c2cccnn2)CNCC1` [Compound 76] was 50.1 µM and ~50.1 µM; that for `CC1=C(c2ccncc2)CNCC1` [Compound 77] was 7.94 µM.

Compound `NCCc1ccccc1` [β-PEA, β-phenethylamine, reference compound] gave an Emax at hTAAR1 of 100%. The EC50 on hTAAR1 (setting [3]) was 0.251 µM.
